Biological target: T1, wt human TYK2, catalytic site (Homo sapiens, UniProt P29597)
T1 construct: wt human TYK2, catalytic site; purchased SignalChem
T1 sequence (P29597 897-1176 limits assumed): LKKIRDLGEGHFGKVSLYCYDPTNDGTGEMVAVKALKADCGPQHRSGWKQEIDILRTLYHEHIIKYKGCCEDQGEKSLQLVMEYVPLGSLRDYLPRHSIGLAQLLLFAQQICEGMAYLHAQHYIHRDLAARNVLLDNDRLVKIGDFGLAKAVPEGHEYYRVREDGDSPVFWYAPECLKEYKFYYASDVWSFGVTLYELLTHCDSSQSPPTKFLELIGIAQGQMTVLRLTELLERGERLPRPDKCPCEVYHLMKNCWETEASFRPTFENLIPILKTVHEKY
Assay: HTRF KinEASE assay, TYK2
Type: biochemical
Conditions: 1 μM ATP; read-out: IC50, inhibitory activity toward TYK2
Experimental: Basic protocol for HTRF KinEASE assay (Cisbio/FRA) inhibitor studies involved two steps:
Enzymatic step: Addition of 4 μl of test compound in corresponding DMSO dilutions, 4 μl of kinase/substrate mixture, 2 μl of ATP into 384 well small volume plates. Incubation for at least 30 minutes at room temperature.
Detection step: Addition of 5 μl antibody and 5 μl streptavidin-XL665, read plate after 60 minutes. Data analysis of emission ratios according to KinEASE assay protocol.
Kinase and assay components were adjusted to final concentrations according to the kit protocol. For TYK2: 2 nM wt human TYK2, catalytic site (SignalChem/CAN), 1 μM HTRF KinEASE-TK Substrate-biotin, 1 μM ATP in 1× Kinase Buffer

For `Fc1cccc(Cl)c1C1=Nc2cn[nH]c2-c2[nH]ncc2N1` [Compound 89, 5-(2-chloro-6-fluorophenyl)-4,9-dihydro-1H-dipyrazolo[4,3-d:3′,4′-f][1,3]diazepine], the IC50 was 0.01 to 0.1 µM.

From patent publication US12384788B2, “1,4-dihydrobenzo[d]pyrazolo[3,4-f][1,3]diazepine derivatives and related compounds as LRRK2, NUAK1 and/or TYK2 kinase modulators for the treatment of e.g. autoimmune disease” (Origenis GMBH, priority 2019, dated 2025)
